Measured values taken from ChEMBL document CHEMBL1764978, “Cysteine mapping in conformationally distinct kinase nucleotide binding sites: application to the design of selective covalent inhibitors” (J Med Chem, 2011).

Tests used:
[1] = target: Mitogen-activated protein kinase 8 (Homo sapiens) (UniProt P45983); assay: Binding affinity to human Jnk1 isoleucine residue assessed as residual binding at 1 uM by site dependent competitive binding assay
[2] = target: Mitogen-activated protein kinase 9 (Homo sapiens) (UniProt P45984); assay: Binding affinity to human Jnk2 isoleucine residue assessed as residual binding at 1 uM by site dependent competitive binding assay
[3] = target: Mitogen-activated protein kinase 10 (Homo sapiens) (UniProt P53779); assay: Binding affinity to human Jnk3 isoleucine residue assessed as residual binding at 1 uM by site dependent competitive binding assay
[4] = target: T1, Mast/stem cell growth factor receptor Kit (Homo sapiens, UniProt P10721); assay: Binding affinity to human Kit cysteine residue assessed as residual binding at 1 uM by site dependent competitive binding assay
[5] = test system: Mast/stem cell growth factor receptor Kit (Homo sapiens), P10721 [V559D]; assay: Binding affinity to human Kit V559D mutant cysteine residue assessed as residual binding at 1 uM by site dependent competitive binding assay
[6] = test system: Mast/stem cell growth factor receptor Kit (Homo sapiens), P10721 [V559D,V654A]; assay: Binding affinity to human Kit V559D/V654A mutant cysteine residue assessed as residual binding at 1 uM by site dependent competitive binding assay
[7] = target: Tyrosine-protein kinase Lck (Homo sapiens) (UniProt P06239); assay: Binding affinity to human LCK tyrosine residue assessed as residual binding at 1 uM by site dependent competitive binding assay
[8] = target: Tyrosine-protein kinase Lyn (Homo sapiens) (UniProt P07948); assay: Binding affinity to human LYN tyrosine residue assessed as residual binding at 1 uM by site dependent competitive binding assay
[9] = target: Serine/threonine-protein kinase MARK2 (Homo sapiens) (UniProt Q7KZI7); assay: Binding affinity to human Mark2 isoleucine residue assessed as residual binding at 1 uM by site dependent competitive binding assay
[10] = target: Serine/threonine-protein kinase 3 (Homo sapiens) (UniProt Q13188); assay: Binding affinity to human Mst2 […] residue assessed as residual binding at 1 uM by site dependent competitive binding assay
[11] = target: T2, Platelet-derived growth factor receptor alpha (Homo sapiens, UniProt P16234); assay: Binding affinity to human PDGFRalpha cysteine residue assessed as residual binding at 1 uM by site dependent competitive binding assay
[12] = target: Platelet-derived growth factor receptor beta (Homo sapiens) (UniProt P09619); assay: Binding affinity to human PDGFRbeta cysteine residue assessed as residual binding at 1 uM by site dependent competitive binding assay
[13] = target: Tyrosine-protein kinase ABL1 (Homo sapiens, UniProt P00519); assay: Inhibition of human wild type ABL1 assessed as [gamma33P]ATP incorporation into poly-Ala-Glu-Lys-Tyr after 60 mins by microplate scintillation counting
[14] = target: T1, Mast/stem cell growth factor receptor Kit; assay: Inhibition of human wild type KIT assessed as [gamma33P]ATP incorporation into polyGluTyr after 60 mins by microplate scintillation counting
[15] = target: T2, Platelet-derived growth factor receptor alpha; assay: Inhibition of human wild type PDGFRalpha assessed as [gamma33P]ATP incorporation into poly-Ala-Glu-Lys-Tyr after 60 mins by microplate scintillation counting
[16] = target: Cyclin-dependent kinase-like 1 (Homo sapiens) (UniProt Q00532); assay: Binding affinity to human CDKL1 assessed as residual binding at 1 uM by site dependent competitive binding assay
[17] = target: Macrophage colony-stimulating factor 1 receptor (Homo sapiens) (UniProt P07333); assay: Binding affinity to human CSF1R assessed as residual binding at 1 uM by site dependent competitive binding assay
[18] = target: Tyrosine-protein kinase Fer (Homo sapiens) (UniProt P16591); assay: Binding affinity to human Fer assessed as residual binding at 1 uM by site dependent competitive binding assay
[19] = target: Tyrosine-protein kinase Fes/Fps (Homo sapiens) (UniProt P07332); assay: Binding affinity to human Fes assessed as residual binding at 1 uM by site dependent competitive binding assay
[20] = target: Fibroblast growth factor receptor 1 (Homo sapiens) (UniProt P11362); assay: Binding affinity to human Fgfr1 assessed as residual binding at 1 uM by site dependent competitive binding assay
[21] = target: Fibroblast growth factor receptor 2 (Homo sapiens) (UniProt P21802); assay: Binding affinity to human Fgfr2 assessed as residual binding at 1 uM by site dependent competitive binding assay
[22] = target: Fibroblast growth factor receptor 3 (Homo sapiens) (UniProt P22607); assay: Binding affinity to human Fgfr3 assessed as residual binding at 1 uM by site dependent competitive binding assay
[23] = target: Fibroblast growth factor receptor 4 (Homo sapiens) (UniProt P22455); assay: Binding affinity to human Fgfr4 assessed as residual binding at 1 uM by site dependent competitive binding assay
[24] = target: Vascular endothelial growth factor receptor 1 (Homo sapiens) (UniProt P17948); assay: Binding affinity to human Flt1 assessed as residual binding at 1 uM by site dependent competitive binding assay
[25] = target: Receptor-type tyrosine-protein kinase FLT3 (Homo sapiens) (UniProt P36888); assay: Binding affinity to human Flt3 assessed as residual binding at 1 uM by site dependent competitive binding assay
[26] = target: Vascular endothelial growth factor receptor 3 (Homo sapiens) (UniProt P35916); assay: Binding affinity to human Flt4 assessed as residual binding at 1 uM by site dependent competitive binding assay
[27] = target: Tyrosine-protein kinase JAK3 (Homo sapiens) (UniProt P52333); assay: Binding affinity to human Jak3 domain 1 assessed as residual binding at 1 uM by site dependent competitive binding assay
[28] = target: T1, Mast/stem cell growth factor receptor Kit; assay: Binding affinity to human Kit assessed as residual binding at 1 uM by site dependent competitive binding assay
[29] = target: T2, Platelet-derived growth factor receptor alpha; assay: Binding affinity to human PDGFRalpha assessed as residual binding at 1 uM by site dependent competitive binding assay
[30] = target: Platelet-derived growth factor receptor beta (Homo sapiens) (UniProt P09619); assay: Binding affinity to human PDGFRbeta assessed as residual binding at 1 uM by site dependent competitive binding assay
[31] = target: Vascular endothelial growth factor receptor 2 (Homo sapiens) (UniProt P35968); assay: Binding affinity to human Vegfr2 assessed as residual binding at 1 uM by site dependent competitive binding assay
[32] = target: Tyrosine-protein kinase ABL2 (Homo sapiens) (UniProt P42684); assay: Binding affinity to human ABL2 phenylalanine residue assessed as residual binding at 1 uM by site dependent competitive binding assay
[33] = target: Tyrosine-protein kinase Blk (Homo sapiens) (UniProt P51451); assay: Binding affinity to human BLK serine residue assessed as residual binding at 1 uM by site dependent competitive binding assay
[34] = test system: Serine/threonine-protein kinase B-raf (Homo sapiens), P15056 [V600E]; assay: Binding affinity to human BRAF V600E mutant isoleucine residue assessed as residual binding at 1 uM by site dependent competitive binding assay
[35] = target: Calcium/calmodulin-dependent protein kinase kinase 1 (Homo sapiens) (UniProt Q8N5S9); assay: Binding affinity to human CAMKK1 isoleucine residue assessed as residual binding at 1 uM by site dependent competitive binding assay
[36] = target: Calcium/calmodulin-dependent protein kinase kinase 2 (Homo sapiens) (UniProt Q96RR4); assay: Binding affinity to human CAMKK2 isoleucine residue assessed as residual binding at 1 uM by site dependent competitive binding assay
[37] = target: Macrophage colony-stimulating factor 1 receptor (Homo sapiens) (UniProt P07333); assay: Binding affinity to human CSF1R cysteine residue assessed as residual binding at 1 uM by site dependent competitive binding assay
[38] = target: Epithelial discoidin domain-containing receptor 1 (Homo sapiens) (UniProt Q08345); assay: Binding affinity to human DDR1 phenylalanine residue assessed as residual binding at 1 uM by site dependent competitive binding assay
[39] = target: Discoidin domain-containing receptor 2 (Homo sapiens) (UniProt Q16832); assay: Binding affinity to human DDR2 phenylalanine residue assessed as residual binding at 1 uM by site dependent competitive binding assay
[40] = target: Serine/threonine-protein kinase 17A (Homo sapiens) (UniProt Q9UEE5); assay: Binding affinity to human DRAK1 valine residue assessed as residual binding at 1 uM by site dependent competitive binding assay
[41] = target: Ephrin type-A receptor 8 (Homo sapiens) (UniProt P29322); assay: Binding affinity to human EPHA8 tyrosine residue assessed as residual binding at 1 uM by site dependent competitive binding assay
[42] = target: Cyclin-G-associated kinase (Homo sapiens) (UniProt O14976); assay: Binding affinity to human GAK isoleucine residue assessed as residual binding at 1 uM by site dependent competitive binding assay
[43] = target: Protein-tyrosine kinase 2-beta (Homo sapiens) (UniProt Q14289); assay: Binding affinity to human Pyk2 assessed as residual binding at 1 uM by site dependent competitive binding assay
[44] = target: Tyrosine-protein kinase Blk (Homo sapiens) (UniProt P51451); assay: Binding affinity to human BLK serine residue assessed as residual binding at 10 uM by site dependent competitive binding assay
[45] = target: Ephrin type-A receptor 8 (Homo sapiens) (UniProt P29322); assay: Binding affinity to human EPHA8 tyrosine residue assessed as residual binding at 10 uM by site dependent competitive binding assay
[46] = target: Cyclin-G-associated kinase (Homo sapiens) (UniProt O14976); assay: Binding affinity to human GAK isoleucine residue assessed as residual binding at 10 uM by site dependent competitive binding assay
[47] = target: Serine/threonine-protein kinase MARK2 (Homo sapiens) (UniProt Q7KZI7); assay: Binding affinity to human Mark2 isoleucine residue assessed as residual binding at 10 uM by site dependent competitive binding assay
[48] = target: Serine/threonine-protein kinase 17A (Homo sapiens) (UniProt Q9UEE5); assay: Binding affinity to human DRAK1 valine residue assessed as residual binding at 10 uM by site dependent competitive binding assay
[49] = target: Tyrosine-protein kinase Fer (Homo sapiens) (UniProt P16591); assay: Binding affinity to human Fer assessed as residual binding at 10 uM by site dependent competitive binding assay
[50] = target: Fibroblast growth factor receptor 3 (Homo sapiens) (UniProt P22607); assay: Binding affinity to human Fgfr3 assessed as residual binding at 10 uM by site dependent competitive binding assay
[51] = target: Fibroblast growth factor receptor 4 (Homo sapiens) (UniProt P22455); assay: Binding affinity to human Fgfr4 assessed as residual binding at 10 uM by site dependent competitive binding assay
[52] = target: Vascular endothelial growth factor receptor 1 (Homo sapiens) (UniProt P17948); assay: Binding affinity to human Flt1 assessed as residual binding at 10 uM by site dependent competitive binding assay
[53] = target: Vascular endothelial growth factor receptor 3 (Homo sapiens) (UniProt P35916); assay: Binding affinity to human Flt4 assessed as residual binding at 10 uM by site dependent competitive binding assay

Tyrosine-protein kinase ABL1, sequence (P00519 whole entry): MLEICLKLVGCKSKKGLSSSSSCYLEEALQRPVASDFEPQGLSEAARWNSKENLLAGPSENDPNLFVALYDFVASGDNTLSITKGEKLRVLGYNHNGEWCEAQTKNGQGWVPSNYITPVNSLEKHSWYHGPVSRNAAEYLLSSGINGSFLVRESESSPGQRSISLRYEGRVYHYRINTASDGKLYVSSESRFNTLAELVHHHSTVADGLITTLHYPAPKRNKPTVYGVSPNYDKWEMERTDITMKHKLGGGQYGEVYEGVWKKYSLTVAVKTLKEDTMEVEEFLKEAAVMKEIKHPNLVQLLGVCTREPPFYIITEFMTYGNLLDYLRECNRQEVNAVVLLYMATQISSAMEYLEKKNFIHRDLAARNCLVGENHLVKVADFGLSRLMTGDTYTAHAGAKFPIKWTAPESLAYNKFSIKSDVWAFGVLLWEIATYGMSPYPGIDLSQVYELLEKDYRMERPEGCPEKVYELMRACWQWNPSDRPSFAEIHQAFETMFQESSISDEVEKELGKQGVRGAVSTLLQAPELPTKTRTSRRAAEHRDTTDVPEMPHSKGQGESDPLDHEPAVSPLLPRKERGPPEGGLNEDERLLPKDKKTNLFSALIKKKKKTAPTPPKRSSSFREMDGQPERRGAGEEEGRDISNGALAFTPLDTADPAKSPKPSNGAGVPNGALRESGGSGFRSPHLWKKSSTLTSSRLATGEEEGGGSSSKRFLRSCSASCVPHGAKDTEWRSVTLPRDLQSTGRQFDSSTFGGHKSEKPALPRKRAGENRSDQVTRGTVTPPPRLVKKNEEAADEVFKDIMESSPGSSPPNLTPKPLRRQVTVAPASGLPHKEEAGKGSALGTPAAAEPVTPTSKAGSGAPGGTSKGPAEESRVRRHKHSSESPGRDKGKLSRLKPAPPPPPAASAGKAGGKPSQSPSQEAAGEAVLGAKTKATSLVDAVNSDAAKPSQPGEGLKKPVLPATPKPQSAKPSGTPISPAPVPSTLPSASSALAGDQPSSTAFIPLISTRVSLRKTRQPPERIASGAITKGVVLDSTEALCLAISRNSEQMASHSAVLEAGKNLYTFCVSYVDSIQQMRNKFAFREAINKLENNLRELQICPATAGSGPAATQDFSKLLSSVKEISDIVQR
T2 sequence (P16234 whole entry): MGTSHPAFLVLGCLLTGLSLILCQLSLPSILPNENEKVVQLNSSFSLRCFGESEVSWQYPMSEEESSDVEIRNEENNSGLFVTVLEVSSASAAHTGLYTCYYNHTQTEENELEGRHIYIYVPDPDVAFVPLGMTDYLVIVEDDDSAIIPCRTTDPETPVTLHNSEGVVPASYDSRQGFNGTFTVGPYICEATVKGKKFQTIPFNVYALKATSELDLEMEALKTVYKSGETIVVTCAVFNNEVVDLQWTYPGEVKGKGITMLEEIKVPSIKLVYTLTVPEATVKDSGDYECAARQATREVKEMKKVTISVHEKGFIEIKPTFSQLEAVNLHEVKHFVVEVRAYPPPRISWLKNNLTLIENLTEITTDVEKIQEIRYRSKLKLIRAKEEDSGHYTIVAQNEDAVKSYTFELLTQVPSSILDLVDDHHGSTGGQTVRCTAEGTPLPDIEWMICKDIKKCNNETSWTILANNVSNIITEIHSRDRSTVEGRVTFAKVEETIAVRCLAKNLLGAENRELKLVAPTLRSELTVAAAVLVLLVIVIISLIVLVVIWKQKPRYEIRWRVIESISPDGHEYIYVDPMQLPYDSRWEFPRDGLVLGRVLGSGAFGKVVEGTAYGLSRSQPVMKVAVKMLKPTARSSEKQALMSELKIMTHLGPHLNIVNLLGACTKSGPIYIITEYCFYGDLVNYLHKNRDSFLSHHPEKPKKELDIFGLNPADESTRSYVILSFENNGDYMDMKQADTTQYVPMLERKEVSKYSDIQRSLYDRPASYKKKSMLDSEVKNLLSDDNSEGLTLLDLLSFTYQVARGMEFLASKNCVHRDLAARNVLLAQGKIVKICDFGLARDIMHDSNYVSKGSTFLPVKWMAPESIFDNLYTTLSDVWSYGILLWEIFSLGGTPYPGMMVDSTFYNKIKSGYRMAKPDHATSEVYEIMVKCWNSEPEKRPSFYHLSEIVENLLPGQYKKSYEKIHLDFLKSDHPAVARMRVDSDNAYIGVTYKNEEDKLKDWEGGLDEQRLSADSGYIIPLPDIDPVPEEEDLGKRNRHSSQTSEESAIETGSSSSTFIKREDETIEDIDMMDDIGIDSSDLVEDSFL
T1 sequence (P10721 whole entry): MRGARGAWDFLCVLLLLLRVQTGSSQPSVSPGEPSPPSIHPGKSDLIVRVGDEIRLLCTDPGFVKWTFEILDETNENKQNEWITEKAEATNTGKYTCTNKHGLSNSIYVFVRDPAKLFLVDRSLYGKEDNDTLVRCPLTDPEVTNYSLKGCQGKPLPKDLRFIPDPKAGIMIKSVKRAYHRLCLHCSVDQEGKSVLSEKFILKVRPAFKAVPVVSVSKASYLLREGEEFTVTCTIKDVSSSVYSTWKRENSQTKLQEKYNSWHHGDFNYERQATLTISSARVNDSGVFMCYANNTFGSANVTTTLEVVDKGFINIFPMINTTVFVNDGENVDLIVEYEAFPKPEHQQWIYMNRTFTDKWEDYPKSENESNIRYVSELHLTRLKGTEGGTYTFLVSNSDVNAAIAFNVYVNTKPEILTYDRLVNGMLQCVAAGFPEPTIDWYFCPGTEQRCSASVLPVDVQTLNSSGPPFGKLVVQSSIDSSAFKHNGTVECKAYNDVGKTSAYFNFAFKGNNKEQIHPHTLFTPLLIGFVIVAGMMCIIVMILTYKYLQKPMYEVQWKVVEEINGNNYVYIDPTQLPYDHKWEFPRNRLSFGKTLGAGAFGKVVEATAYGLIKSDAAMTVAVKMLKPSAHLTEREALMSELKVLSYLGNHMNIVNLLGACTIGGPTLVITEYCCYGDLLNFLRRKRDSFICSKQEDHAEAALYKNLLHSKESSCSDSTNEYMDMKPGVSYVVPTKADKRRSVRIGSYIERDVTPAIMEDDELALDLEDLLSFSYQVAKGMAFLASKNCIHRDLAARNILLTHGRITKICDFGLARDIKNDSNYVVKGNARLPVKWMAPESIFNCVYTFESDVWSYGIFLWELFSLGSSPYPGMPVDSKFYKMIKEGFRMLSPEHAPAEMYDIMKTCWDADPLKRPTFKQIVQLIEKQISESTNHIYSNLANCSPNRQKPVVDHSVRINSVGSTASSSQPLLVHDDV
Macrophage colony-stimulating factor 1 receptor (Homo sapiens), sequence (P07333 whole entry, the tested form may be a part): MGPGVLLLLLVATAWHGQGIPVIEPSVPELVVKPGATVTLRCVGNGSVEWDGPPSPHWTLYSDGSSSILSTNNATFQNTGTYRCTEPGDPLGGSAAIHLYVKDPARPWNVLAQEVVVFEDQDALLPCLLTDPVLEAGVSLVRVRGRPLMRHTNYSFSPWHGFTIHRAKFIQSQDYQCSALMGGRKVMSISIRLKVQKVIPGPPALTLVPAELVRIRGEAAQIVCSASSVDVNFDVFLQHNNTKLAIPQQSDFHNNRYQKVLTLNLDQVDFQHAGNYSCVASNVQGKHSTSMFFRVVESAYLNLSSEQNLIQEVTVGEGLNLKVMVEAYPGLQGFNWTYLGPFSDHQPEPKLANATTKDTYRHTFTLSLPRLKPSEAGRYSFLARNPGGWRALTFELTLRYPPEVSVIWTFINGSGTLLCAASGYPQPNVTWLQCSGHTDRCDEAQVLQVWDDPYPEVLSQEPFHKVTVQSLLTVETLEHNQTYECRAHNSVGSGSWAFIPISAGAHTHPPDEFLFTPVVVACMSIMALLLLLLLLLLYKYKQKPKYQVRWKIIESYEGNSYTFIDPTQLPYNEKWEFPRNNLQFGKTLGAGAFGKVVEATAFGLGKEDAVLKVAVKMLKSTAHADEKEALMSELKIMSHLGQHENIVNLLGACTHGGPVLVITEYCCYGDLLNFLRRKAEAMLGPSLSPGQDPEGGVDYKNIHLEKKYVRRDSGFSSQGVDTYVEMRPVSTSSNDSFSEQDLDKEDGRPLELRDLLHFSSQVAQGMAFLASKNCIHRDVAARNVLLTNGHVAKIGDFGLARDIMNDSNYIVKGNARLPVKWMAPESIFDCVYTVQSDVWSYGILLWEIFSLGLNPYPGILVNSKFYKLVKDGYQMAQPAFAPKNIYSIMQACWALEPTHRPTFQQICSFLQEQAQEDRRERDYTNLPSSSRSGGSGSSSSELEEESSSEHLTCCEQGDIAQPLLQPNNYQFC
Tyrosine-protein kinase Fer (Homo sapiens), sequence (P16591 whole entry, looked up): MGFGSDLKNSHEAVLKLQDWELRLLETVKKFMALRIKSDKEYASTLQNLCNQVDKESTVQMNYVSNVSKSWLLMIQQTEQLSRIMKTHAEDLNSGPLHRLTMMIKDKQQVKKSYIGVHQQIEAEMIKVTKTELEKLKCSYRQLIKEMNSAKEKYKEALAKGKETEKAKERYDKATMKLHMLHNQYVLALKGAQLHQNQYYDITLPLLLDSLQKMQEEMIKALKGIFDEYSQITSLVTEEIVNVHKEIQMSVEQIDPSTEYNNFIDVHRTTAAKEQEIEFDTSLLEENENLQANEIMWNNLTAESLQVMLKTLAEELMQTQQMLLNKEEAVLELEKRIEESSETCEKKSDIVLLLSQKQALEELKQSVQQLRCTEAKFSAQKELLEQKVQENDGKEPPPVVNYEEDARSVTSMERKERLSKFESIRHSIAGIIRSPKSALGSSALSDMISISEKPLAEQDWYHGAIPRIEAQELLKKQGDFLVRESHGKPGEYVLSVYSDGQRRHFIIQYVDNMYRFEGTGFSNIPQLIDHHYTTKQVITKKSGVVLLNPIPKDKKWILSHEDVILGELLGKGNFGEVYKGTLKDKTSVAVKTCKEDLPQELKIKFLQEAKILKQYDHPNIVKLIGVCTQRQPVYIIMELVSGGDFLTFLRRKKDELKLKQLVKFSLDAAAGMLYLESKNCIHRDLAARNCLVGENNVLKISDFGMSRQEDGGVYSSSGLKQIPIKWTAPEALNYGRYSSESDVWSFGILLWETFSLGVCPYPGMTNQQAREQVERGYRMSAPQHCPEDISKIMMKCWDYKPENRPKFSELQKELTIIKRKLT
Mast/stem cell growth factor receptor Kit (Homo sapiens), P10721 [V559D], sequence (P10721 whole entry V559D): as the sequence (P10721 whole entry) above, with V559D counted along it
Mast/stem cell growth factor receptor Kit (Homo sapiens), P10721 [V559D,V654A], sequence (P10721 whole entry V559D/V654A): as the sequence (P10721 whole entry) above, with V559D, V654A counted along it

Which results are given for `Cc1ccc(NC(=O)c2ccc(CNC(=O)CCl)cc2)cc1Nc1nccc(-c2cccnc2)n1`?
Activity [1]: 0.45%; Activity [2]: 4.6%; Activity [3]: 1.9%; Activity [4]: 0%; Activity [5]: 0%; Activity [6]: 7%; Activity [7]: 64%; Activity [8]: 76%; Activity [9]: 100%; Activity [10]: 100%; Activity [11]: 0.7%; Activity [12]: 0%; IC50 [13]: > 20 µM; IC50 [14]: 0.788 µM; IC50 [15]: 1.08 µM; Activity [16]: 100%; Activity [17]: 5%; Activity [18]: 95%; Activity [19]: 100%; Activity [20]: 100%; Activity [21]: 92%; Activity [22]: 100%; Activity [23]: 100%; Activity [24]: 86%; Activity [25]: 81%; Activity [26]: 100%; Activity [27]: 100%; Activity [28]: 0%; Activity [29]: 0.7%; Activity [30]: 0%; Activity [31]: 64%; Activity [32]: 49%; Activity [33]: 69%; Activity [34]: 4.6%; Activity [35]: 100%; Activity [36]: 100%; Activity [37]: 5%; Activity [38]: 0.5%; Activity [39]: 31%; Activity [40]: 100%; Activity [41]: 100%; Activity [42]: 18%; Activity [43]: 68%

With `Cc1ccc(NC(=O)c2ccc(CN3CCN(C)CC3)cc2)cc1Nc1nccc(-c2cccnc2)n1` as the molecule, how does the Activity [44] read?
Its Activity is 0.8%.

And the Activity [45]?
The Activity was 7.2%.

And the Activity [46]?
The Activity was 5.1%.

What about the Activity [47] of the same molecule?
Its Activity is 8.8%.

And the Activity [48]?
The Activity was 5.2%.

What about the Activity [49] of the same molecule?
The Activity was 91%.

And the Activity [50]?
The Activity was 97%.

What about the Activity [51] of the same molecule?
The Activity was 99%.

What about the Activity [52] of the same molecule?
Its Activity is 78%.

What about the Activity [53] of the same molecule?
Its Activity is 85%.

How did the IC50 [13] turn out when `C/C=C/C(=O)NCc1ccc(C(=O)Nc2ccc(C)c(Nc3nccc(-c4cccnc4)n3)c2)cc1` was run?
Its IC50 is over 20 µM.

And the IC50 [14]?
The IC50 was 4.71 µM.

For `Cc1ccc(NC(=O)c2ccc(CN)cc2)cc1Nc1nccc(-c2cccnc2)n1`, which IC50 [13] is on record?
Its IC50 is over 20 µM.

What about the IC50 [14] of the same molecule?
Its IC50 is 0.788 µM.

`Cc1ccc(NC(=O)c2ccc(CCl)cc2)cc1Nc1nccc(-c2cccnc2)n1` was tested. Which IC50 [14] did it give?
The IC50 was 0.245 µM.

Which results are given for `C=C(C)C(=O)NCc1ccc(C(=O)Nc2ccc(C)c(Nc3nccc(-c4cccnc4)n3)c2)cc1`?
IC50 [13]: > 20 µM; IC50 [14]: 2.74 µM
